In patent US8952024B2, “Herbicidal pyrimidone derivatives” (E I du Pont de Nemours and Company, priority 2009, dated 2015):

Key:
Type in all cases: in vivo
[1] = system: canarygrass (Phalaris minor); assay: Test B postemergence plant response; details: for Canarygrass plant response rating (0 to 100 scale): 62 g ai/ha, 0 is no effect, 13 to 15 days
Summary of the method: (§1)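 Plants at the 1- to 4-leaf stage (2 to 18 cm tall), grown in pots of peat moss/vermiculite medium with wetting agent and starter nutrients, received postemergence applications of test chemicals. After 13 to 15 days in a greenhouse, injury was rated visually against untreated controls on a 0 (no effect) to 100 (complete control) scale.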

[2] = system: windgrass (Apera spica-venti); assay: Test B postemergence plant response; details: for Windgrass plant response rating (0 to 100 scale): 62 g ai/ha, 0 is no effect, 13 to 15 days
Summary of the method: as §1

[3] = system: chickweed (Stellaria media); assay: Test B postemergence plant response; details: for Chickweed plant response rating (0 to 100 scale): 62 g ai/ha, 0 is no effect, 13 to 15 days
Summary of the method: as §1

corn (Zea mays) = assay: Test B pre-/postemergence plant response; details: for Corn plant response rating (0 to 100 scale): 0 is no effect, 13 to 15 days
Summary of the method: (§2)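 Visually scored on a 0 to 100 scale after 13 to 15 days in greenhouse versus controls. Treatments were preemergence on seeded loam/sand soil and postemergence on 1- to 4-leaf plants.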

[4] = system: downy bromegrass (Bromus tectorum); assay: Test B pre-/postemergence plant response; details: for Bromegrass, Downy plant response rating (0 to 100 scale): 0 is no effect, 13 to 15 days
Summary of the method: as §2

[5] = system: Surinam grass (Brachiaria decumbens); assay: Test B pre-/postemergence plant response; details: for Surinam Grass plant response rating (0 to 100 scale): 0 is no effect, 13 to 15 days
Summary of the method: as §2

[6] = system: cocklebur (Xanthium strumarium); assay: Test B pre-/postemergence plant response; details: for Cocklebur plant response rating (0 to 100 scale): 0 is no effect, 13 to 15 days
Summary of the method: as §2

[7] = system: giant foxtail (Setaria faberii); assay: Test B pre-/postemergence plant response; details: for Foxtail, Giant plant response rating (0 to 100 scale): 0 is no effect, 13 to 15 days
Summary of the method: as §2

[8] = system: blackgrass (Alopecurus myosuroides); assay: Test B pre-/postemergence plant response; details: for Blackgrass plant response rating (0 to 100 scale): 0 is no effect, 13 to 15 days
Summary of the method: as §2

wild oat (Avena fatua) = assay: Test B pre-/postemergence plant response; details: for Oat, Wild plant response rating (0 to 100 scale): 0 is no effect, 13 to 15 days
Summary of the method: as §2

[9] = system: morningglory (Ipomoea coccinea); assay: Test B pre-/postemergence plant response; details: for Morningglory plant response rating (0 to 100 scale): 0 is no effect, 13 to 15 days
Summary of the method: as §2

[10] = system: Italian ryegrass (Lolium multiflorum); assay: Test B pre-/postemergence plant response; details: for Ryegrass, Italian plant response rating (0 to 100 scale): 0 is no effect, 13 to 15 days
Summary of the method: as §2

[11] = system: pigweed (Amaranthus retroflexus); assay: Test B pre-/postemergence plant response; details: for Pigweed plant response rating (0 to 100 scale): 0 is no effect, 13 to 15 days
Summary of the method: as §2

[12] = 31 g ai/ha, postemergence, scale 0 to 100, 0 is no effect, 100 is complete control
[13] = postemergence, 100 is complete control
[14] = Postemergence, 125 g ai/ha, visual rating after 13 to 15 days, scale 0 (no effect) to 100 (complete control)
[15] = Postemergence, 250 g ai/ha, scale 0 to 100 (0 no effect, 100 complete control)
[16] = 62 g ai/ha, postemergence, 100 is complete control
[17] = Preemergence, 31 g ai/ha, scale 0 to 100 (0 no effect, 100 complete control)
[18] = Preemergence, 62 g ai/ha, scale 0 to 100 (0 no effect, 100 complete control)
[19] = Preemergence, 125 g ai/ha, scale 0 to 100, 0 no effect, 100 complete control
[20] = Preemergence, 250 g ai/ha, 0 to 100 scale

CCCc1ncc(C(=O)C2=C(O)CCCC2=O)c(=O)n1CC1CCCO1 (stereo not drawn) [Compound 74]
Plant response rating, Canarygrass [1, 12]: 0
Canarygrass plant response rating (0 to 100 scale) [1, 13]: 0
Plant response rating, Canarygrass [1, 14]: 0
Plant response rating, Canarygrass [1, 15]: 0
Plant response rating, Windgrass [2, 12]: 5
Windgrass plant response rating (0 to 100 scale) [2, 13]: 60
Plant response rating, Windgrass [2, 14]: 80
Plant response rating, Windgrass [2, 15]: 95
Plant response rating, Chickweed [3, 12]: 75
Chickweed plant response rating (0 to 100 scale) [3, 13]: 85
Plant response rating, Chickweed [3, 14]: 95
Plant response rating, Chickweed [3, 15]: 100
Plant response rating, Corn (corn (Zea mays); [12]): 0
Corn plant response rating (0 to 100 scale) (corn (Zea mays); [16]): 0
Plant response rating, Corn (corn (Zea mays); [14]): 15
Plant response rating, Corn (corn (Zea mays); [15]): 60
Plant response rating, Corn (corn (Zea mays); [17]): 0
Plant response rating, Corn (corn (Zea mays); [18]): 0
Plant response rating, Corn (corn (Zea mays); [19]): 0
Corn plant response rating (corn (Zea mays); [20]): 0
Plant response rating, Bromegrass, Downy [4, 12]: 0
Bromegrass, Downy plant response rating (0 to 100 scale) [4, 16]: 5
Plant response rating, Bromegrass, Downy [4, 14]: 5
Plant response rating, Bromegrass, Downy [4, 15]: 35
Plant response rating, Bromegrass, Downy [4, 17]: 0
Plant response rating, Bromegrass, Downy [4, 18]: 0
Plant response rating, Bromegrass, Downy [4, 19]: 0
Bromegrass, Downy plant response rating [4, 20]: 0
Plant response rating, Surinam Grass [5, 12]: 20
Surinam Grass plant response rating (0 to 100 scale) [5, 16]: 45
Plant response rating, Surinam Grass [5, 14]: 65
Plant response rating, Surinam Grass [5, 15]: 75
Plant response rating, Surinam Grass [5, 17]: 0
Plant response rating, Surinam Grass [5, 18]: 80
Plant response rating, Surinam Grass [5, 19]: 85
Surinam Grass plant response rating [5, 20]: 95
Plant response rating, Cocklebur [6, 12]: 20
Cocklebur plant response rating (0 to 100 scale) [6, 16]: 85
Plant response rating, Cocklebur [6, 14]: 90
Plant response rating, Cocklebur [6, 15]: 95
Plant response rating, Cocklebur [6, 17]: 10
Plant response rating, Cocklebur [6, 18]: 45
Plant response rating, Cocklebur [6, 19]: 70
Cocklebur plant response rating [6, 20]: 80
Plant response rating, Foxtail, Giant [7, 12]: 25
Foxtail, Giant plant response rating (0 to 100 scale) [7, 16]: 55
Plant response rating, Foxtail, Giant [7, 14]: 70
Plant response rating, Foxtail, Giant [7, 15]: 85
Plant response rating, Foxtail, Giant [7, 17]: 0
Plant response rating, Foxtail, Giant [7, 18]: 0
Plant response rating, Foxtail, Giant [7, 19]: 5
Foxtail, Giant plant response rating [7, 20]: 45
Plant response rating, Blackgrass [8, 12]: 0
Blackgrass plant response rating (0 to 100 scale) [8, 16]: 0
Plant response rating, Blackgrass [8, 14]: 25
Plant response rating, Blackgrass [8, 15]: 45
Plant response rating, Blackgrass [8, 17]: 0
Plant response rating, Blackgrass [8, 18]: 0
Plant response rating, Blackgrass [8, 19]: 0
Blackgrass plant response rating [8, 20]: 10
Plant response rating, Oat, Wild (wild oat (Avena fatua); [12]): 20
Oat, Wild plant response rating (0 to 100 scale) (wild oat (Avena fatua); [16]): 20
Plant response rating, Oat, Wild (wild oat (Avena fatua); [14]): 60
Plant response rating, Oat, Wild (wild oat (Avena fatua); [15]): 80
Plant response rating, Oat, Wild (wild oat (Avena fatua); [17]): 0
Plant response rating, Oat, Wild (wild oat (Avena fatua); [18]): 0
Plant response rating, Oat, Wild (wild oat (Avena fatua); [19]): 5
Oat, Wild plant response rating (wild oat (Avena fatua); [20]): 5
Plant response rating, Morningglory [9, 12]: 60
Morningglory plant response rating (0 to 100 scale) [9, 16]: 85
Plant response rating, Morningglory [9, 14]: 95
Plant response rating, Morningglory [9, 15]: 100
Plant response rating, Morningglory [9, 17]: 10
Plant response rating, Morningglory [9, 18]: 60
Plant response rating, Morningglory [9, 19]: 75
Morningglory plant response rating [9, 20]: 80
Plant response rating, Ryegrass, Italian [10, 12]: 5
Ryegrass, Italian plant response rating (0 to 100 scale) [10, 16]: 20
Plant response rating, Ryegrass, Italian [10, 14]: 20
Plant response rating, Ryegrass, Italian [10, 15]: 35
Plant response rating, Ryegrass, Italian [10, 17]: 0
Plant response rating, Ryegrass, Italian [10, 18]: 0
Plant response rating, Ryegrass, Italian [10, 19]: 0
Ryegrass, Italian plant response rating [10, 20]: 0
Plant response rating, Pigweed [11, 12]: 90
Pigweed plant response rating (0 to 100 scale) [11, 16]: 98
Plant response rating, Pigweed [11, 14]: 100
Plant response rating, Pigweed [11, 15]: 100
Plant response rating, Pigweed [11, 17]: 98
Plant response rating, Pigweed [11, 18]: 98
Plant response rating, Pigweed [11, 19]: 100
Pigweed plant response rating [11, 20]: 100

Cc1ccc(-c2ncc(C(=O)C3=C(O)CCCC3=O)c(=O)n2-c2ccccc2)cc1 [Compound 80]
Plant response rating, Canarygrass [1, 12]: 45
Canarygrass plant response rating (0 to 100 scale) [1, 13]: 50
Plant response rating, Canarygrass [1, 14]: 50
Plant response rating, Canarygrass [1, 15]: 70
Plant response rating, Windgrass [2, 12]: 50
Windgrass plant response rating (0 to 100 scale) [2, 13]: 60
Plant response rating, Windgrass [2, 14]: 70
Plant response rating, Windgrass [2, 15]: 80
Plant response rating, Chickweed [3, 12]: 90
Chickweed plant response rating (0 to 100 scale) [3, 13]: 98
Plant response rating, Chickweed [3, 14]: 100
Plant response rating, Chickweed [3, 15]: 100
Plant response rating, Corn (corn (Zea mays); [12]): 5
Corn plant response rating (0 to 100 scale) (corn (Zea mays); [16]): 35
Plant response rating, Corn (corn (Zea mays); [14]): 65
Plant response rating, Corn (corn (Zea mays); [15]): 65
Plant response rating, Bromegrass, Downy [4, 12]: 45
Bromegrass, Downy plant response rating (0 to 100 scale) [4, 16]: 60
Plant response rating, Bromegrass, Downy [4, 14]: 60
Plant response rating, Bromegrass, Downy [4, 15]: 80
Plant response rating, Surinam Grass [5, 12]: 45
Surinam Grass plant response rating (0 to 100 scale) [5, 16]: 45
Plant response rating, Surinam Grass [5, 14]: 60
Plant response rating, Surinam Grass [5, 15]: 65
Plant response rating, Cocklebur [6, 12]: 0
Cocklebur plant response rating (0 to 100 scale) [6, 16]: 10
Plant response rating, Cocklebur [6, 14]: 45
Plant response rating, Cocklebur [6, 15]: 65
Plant response rating, Foxtail, Giant [7, 12]: 75
Foxtail, Giant plant response rating (0 to 100 scale) [7, 16]: 90
Plant response rating, Foxtail, Giant [7, 14]: 95
Plant response rating, Foxtail, Giant [7, 15]: 95
Plant response rating, Blackgrass [8, 12]: 0
Blackgrass plant response rating (0 to 100 scale) [8, 16]: 0
Plant response rating, Blackgrass [8, 14]: 5
Plant response rating, Blackgrass [8, 15]: 10
Plant response rating, Oat, Wild (wild oat (Avena fatua); [12]): 20
Oat, Wild plant response rating (0 to 100 scale) (wild oat (Avena fatua); [16]): 30
Plant response rating, Oat, Wild (wild oat (Avena fatua); [14]): 40
Plant response rating, Oat, Wild (wild oat (Avena fatua); [15]): 50
Plant response rating, Morningglory [9, 12]: 85
Morningglory plant response rating (0 to 100 scale) [9, 16]: 100
Plant response rating, Morningglory [9, 14]: 100
Plant response rating, Morningglory [9, 15]: 100
Plant response rating, Ryegrass, Italian [10, 12]: 0
Ryegrass, Italian plant response rating (0 to 100 scale) [10, 16]: 0
Plant response rating, Ryegrass, Italian [10, 14]: 5
Plant response rating, Ryegrass, Italian [10, 15]: 5
Plant response rating, Pigweed [11, 12]: 100
Pigweed plant response rating (0 to 100 scale) [11, 16]: 100
Plant response rating, Pigweed [11, 14]: 100
Plant response rating, Pigweed [11, 15]: 100
